Test results from patent US7763658B2, “Treatment for cancers” (Synta Pharmaceuticals Corp., priority 2003, dated 2010).
“Also recorded” adds a separate entry of the source.

Legend:
39SK normal fibroblast = assay: In vitro cytotoxicity, MTS assay, 39SK; type: cell-based; details: Human normal fibroblast, 72 hours
Experimental: (§1) All experiments were performed on exponentially growing cell culture.

MES-SA/DX5 = assay: Tumor cell growth inhibition, MTS assay, MES-SA/DX5; type: cell-based, human; details: protocol of Example 15, Table 2
Experimental: (§2) The in vitro activity of the compounds was assessed in a selected set of human cancer cell lines.
(§3) MES-SA, a model of uterine sarcoma, is sensitive to a number of chemotherapeutic agents, including Doxorubicin, Dactinomycin, Mitomycin C, paclitaxel and Bleomycin, but resistant to Vinblastine and Cisplatin. MES-SA/DX5 was established in the presence of increasing concentrations of Doxorubicin. […] Both MES-SA and MES-SA/Dx5 were purchased from ATCC (ATCC CRL-1976 and ATCC CRL-1977, respectively).
(§4) All experiments were performed on exponentially growing cell culture. Cell densities were 2.5×10^4 cells/ml in all experiment except special.

[1] = test system: multi-drug resistant human uterine sarcoma MES-SA/DX5 tumors; assay: MES-SA/DX5 tumors in nude mice; type: in vivo; details: 15 mg/kg intravenously, 3 times a week for 3 weeks
Experimental: A supplemented media was prepared from 50% DMEM/Dulbecco Modified Eagle Medium (High Glucose), 50% RPMI 1640, 10% FBS/Fetal Bovine Serum (Hybridoma Tested; Sterile Filtered), 1% L-Glutamine, 1% Penicillin-Streptomycin, 1% MEM Sodium Pyruvate and 1% MEM Non-Essential Amino Acids. FBS was obtained from Sigma Chemical Co. and other ingredients were obtained from Invitrogen Life Technologies, USA). The supplemental media was warmed to 37° C. and 50 ml of media was added to a 175 cm^2 tissue culture flask.
The cells used in the assay were multi-drug resistant MES-SA/DX-5 Human Uterine Sarcoma cells from the American Type Culture Collection. 1 vial of MES-SA/DX-5 cells from the liquid nitrogen frozen cell stock was removed. The frozen vial of cells was immediately placed into a 37° C. water bath and gently swirled until thawed. The freeze-vial was wiped with 70% ethanol and cells were immediately pipetted into the 175 cm^2 tissue culture flask containing supplemented media. […]
The flask was washed with 10 ml of sterile room temperature phosphate buffered saline (PBS). […] The supernatant was aspirated and the cell pellet was resuspended in 10 ml of supplemented media and the cells were counted. […]
The above procedure for trypsinizing and centrifuging the cells were followed. The supernatant was aspirated and the cell pellet was resuspended in 10 ml of sterile PBS and the cells were counted. […]

CEM (T-cell leukemia) = assay: cells; type: cell-based; details: Homo sapiens, 72 h, read-out: In vitro Cytotoxicity IC50, CEM
Experimental: as §1

[2] = test system: MDR cell lines (MES-SA/DX5, HL-60/TX1000, Bowes/OV2); assay: Tumor cell growth inhibition, summary over MDR cell lines; type: cell-based, human; details: for IC50: Homo sapiens, read-out: IC50 against the MDR cell lines
Experimental: (§5) The in vitro activity of the compounds was assessed in a selected set of human cancer cell lines. Three pairs of tumor cell lines (non-resistant/resistant) were used to identify novel potent antitumor compounds which are capable of overcoming multi-drug resistance.
(§6) HL-60, a model of myeloid leukemia, was obtained from ATCC (ATCC CCL-240); and HL60/TX1000 was isolated in vitro by subculturing HL-60 in progressively higher concentration of paclitaxel. HL-60/TX1000 cells over-express mdr-1 mRNA and p-glycoprotein (PCP), as determined by western blot and immunofluorescence labeling with antiPGP antibodies. The cells are cross-resistant to paclitaxel, Vincristine, Adriamycin, Etoposide and Doxorubicin.
as §3
(§7) Bowes is a melanoma cell line; and Bowes/OV2 is a Vincristine resistant Bowes melanoma cell line.
as §4

Bowes = assay: Tumor cell growth inhibition, MTS assay, Bowes; type: cell-based; details: Homo sapiens, 72 hours incubation
Experimental: as §5, §7, §4

MES-SA = assay: Tumor cell growth inhibition, MTS assay, MES-SA; type: cell-based; details: Homo sapiens, 72 hours incubation
Experimental: as §2, §3, §4

HL-60 = assay: Tumor cell growth inhibition, MTS assay, HL-60; type: cell-based; details: Homo sapiens, 72 hours incubation
Experimental: as §5, §6, §4

[3] = test system: normal cancer cell lines (MES-SA, HL-60, Bowes); assay: Tumor cell growth inhibition, summary over normal cancer cell lines; type: cell-based; details: Homo sapiens, read-out: IC50 against normal cancer cell lines
Experimental: as §5, §6, §3, §7, §4

SMILES | IC50 (CEM (T-cell leukemia)) | IC50 compared with Compound (1), same multi-drug resistant cell lines [2] | IC50 [2] | IC50 (Bowes) | IC50 (MES-SA) | IC50 (HL-60) | other results
CN(NC(=O)CC(=O)NN(C)C(=S)c1ccccc1)C(=S)c1ccccc1 [Compound (1)] | – | – | – | – | – | – | IC50 (39SK normal fibroblast): > 10 µM
CC(C(=O)NN1Cc2ccccc2C1=S)C(=O)NN1Cc2ccccc2C1=S [Compound (13)] | – | – | – | – | – | – | IC50 (MES-SA/DX5): 0.05 µM
CCN(NC(=O)C(C)C(=O)NN(CC)C(=S)c1ccccc1)C(=S)c1ccccc1 [Compound (16)] | – | – | – | – | – | – | IC50 (MES-SA/DX5; Homo sapiens, MES-SA/Dx5): 0.05 µM; toxicity such as body weight suppression and behavior changes [1]: without any obvious toxicity; tumor growth / tumor size of MES-SA/DX5 compared with vehicle ([1]; FIG. 2): significantly reduced; also recorded: significantly inhibits the tumor growth
CC(=O)O[C@H]1C(=O)[C@@]2(C)[C@H]([C@H](OC(=O)c3ccccc3)[C@]3(O)C[C@H](OC(=O)[C@H](O)[C@@H](NC(=O)c4ccccc4)c4ccccc4)C(C)=C1C3(C)C)[C@]1(OC(C)=O)CO[C@@H]1C[C@@H]2O [Paclitaxel] | 10 nM | two to three orders of magnitude larger | 5 µM | 0.005 µM | 0.005 µM | 0.002 µM | IC50 [3]: 2 to 5 nM
CC[C@]1(O)C[C@H]2CN(CCc3c([nH]c4ccccc34)[C@@](C(=O)OC)(c3cc4c(cc3OC)N(C=O)[C@H]3[C@@](O)(C(=O)OC)[C@H](OC(C)=O)[C@]5(CC)C=CCN6CC[C@]43[C@@H]65)C2)C1 [Vincristine] | 5 nM | two to three orders of magnitude larger | 5 µM | 0.002 µM | 0.004 µM | 0.002 µM | –
